Data as given in patent US20230123334A1, “AMINO LIPID COMPOUND, PREPARATION METHOD THEREFOR, AND APPLICATION THEREOF” (SHENZHEN SHENXIN BIOTECHNOLOGY CO., LTD., priority 2020, published 2023).

How the values were obtained:
Type in all cases: cell-based
[1] = test system: HEK293 cells; assay: Preliminary screening as DNA vectors, GFP transfection of HEK293 cells; conditions: HEK293 cells; lipid/DOPE liposome with 75 ng plasmid DNA (psin-EGFP-IRES-Puro); number of cells expressing GFP divided by total number of nuclei (Hoechst)
Method in brief: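 HEK293 cells in DMEM/10% FBS transfected with 75 ng EGFP plasmid per well complexed with amino lipid/DOPE liposomes in pH 5.6 sodium acetate. Hoechst nuclear stain added 20-24 h post-transfection, then cells cultured another 20-24 h. Confocal imaging gives GFP-positive cells as % of total nuclei.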

[2] = test system: HEK293 cells; assay: Preliminary screening as mRNA vectors, EGFP mRNA transfection of HEK293 cells; conditions: HEK293 cells, 96-well plates, EGFP mRNA 50 ng per well; percentage of GFP fluorescent cells relative to total number of cells (Hoechst)
Method in brief: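 HEK293 cells in DMEM plus 10% FBS transfected in 96-well format with 50 ng EGFP mRNA per well; Lipofectamine2000 served as positive control. Read-out is the percentage of GFP-fluorescent cells among total cells, counted by Hoechst nuclear stain.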

[3] = test system: Hela cells; assay: Transfection of Hela cell line, DNA vectors; conditions: 75 ng plasmid DNA, GFP cells / total cells
Method in brief: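 Amino lipid/DOPE liposomes in sodium acetate pH 5.6 were complexed with 75 ng psin-EGFP-IRES-Puro plasmid for 30 min at room temperature, then mixed with 3-5×10^4 Hela cells in DMEM/10% FBS at 37° C. Hoechst stain after 20-24 h, imaging after a further 20-24 h. Efficiency = GFP-positive cells / total nuclei.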

[4] = test system: Hela cells; assay: Transfection of Hela cell line, mRNA vectors; conditions: 50 ng EGFP mRNA per well
Method in brief: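 HeLa cells in DMEM with 10% FBS transfected with 50 ng EGFP mRNA per well. Readout is percentage of GFP-positive cells among total cells counted by Hoechst nuclear stain; Lipofectamine2000 served as positive control.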

[5] = test system: MCF7 cells; assay: Transfection of MCF7 cell line, DNA vectors; set-up: concentration or dose not given beside the values; conditions: plasmid DNA, GFP cells / total cells
Method in brief: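 MCF7 cells in DMEM with fetal bovine serum were transfected in 96-well format. Read-out was the percentage of GFP-fluorescent cells among total cells counted by Hoechst nuclear stain. Lipofectamine2000 served as positive control.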

[6] = test system: MCF7 cells; assay: Transfection of MCF7 cell line, mRNA vectors; conditions: 50 ng EGFP mRNA per well
Method in brief: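 MCF7 cells in DMEM with fetal bovine serum were transfected with 50 ng EGFP mRNA per well. Read-out was the percentage of GFP-positive cells among total Hoechst-stained nuclei, with Lipofectamine2000 as positive control.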

[7] = test system: embryonic stem cells (hESC2); assay: Screening as DNA vectors in embryonic stem cells, flow cytometry; conditions: 75 ng plasmid DNA, 48 hours after transfection, flow cytometer
Method in brief: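 hESC2 cells in mTeSR1 on matrigel transfected with 75 ng pSin-EGFP-IRES-Puro complexed with amino lipid/DOPE liposomes formed in sodium acetate pH 5.6; 37 °C, 5% CO2. After 48 h, GFP-positive cells counted by flow cytometry (≥2000 cells), efficiency also expressed relative to Lipofectamine Stem.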

[8] = test system: embryonic stem cells (hESC2); assay: Screening as mRNA vectors in embryonic stem cells; conditions: 50 ng EGFP mRNA per well
Method in brief: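 EGFP mRNA (50 ng per well) transfected into hESC2 cells grown in mTeSR1; Lipofectamine Stem served as positive control. Read-out: GFP-fluorescent cells as percentage of total cells.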

[9] = test system: cardiomyocytes; assay: Screening as DNA vectors in cardiomyocytes; set-up: concentration or dose not given beside the values; conditions: method as Example 4
Method in brief: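 hESC-derived cardiomyocytes in DMEM with 10% FBS were transfected with a GFP DNA vector; Lipofectamine Stem served as positive control. Read-out: percentage of GFP-positive cells relative to total cells counted by Hoechst nuclear stain.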

[10] = test system: cardiomyocytes; assay: Screening as mRNA vectors in cardiomyocytes; conditions: 50 ng EGFP mRNA per well
Method in brief: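 Cardiomyocytes differentiated from hESC, in DMEM with 10% FBS, were transfected with 50 ng EGFP mRNA per well. The read-out was GFP-positive cells as a percentage of Hoechst-stained nuclei, with Lipofectamine Stem as positive control.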

Row | Compound | Absolute DNA transfection efficiency in HEK293 cells [1] [%] | Absolute mRNA transfection efficiency in HEK293 cells [2] [%] | Absolute DNA transfection efficiency in Hela cells [3] [%] | Absolute mRNA transfection efficiency in Hela cells [4] [%] | Absolute DNA transfection efficiency in MCF7 cells [5] [%] | Absolute mRNA transfection efficiency in MCF7 cells [6] [%] | Absolute DNA transfection efficiency in embryonic stem cells [7] [%] | Absolute mRNA transfection efficiency in embryonic stem cells [8] [%] | Absolute DNA transfection efficiency in cardiomyocytes [9] [%] | Absolute mRNA transfection efficiency in cardiomyocytes [10] [%]
1 | CCCCCCCCCCCCCCSc1nc(NCCN2CCN(C)CC2)nc(SCCCCCCCCC)n1 [Compound S9S14D5] | 14.6 | 32.3 | 7.3 | 7.32 | 17.9 | 2.1 | 0.7 | 22.5 | 4.6 | 0.6
2 | CCCCCCCCCCCCCCSc1nc(NCCN2CCCC2)nc(SCCCCCCCCC)n1 [Compound S9S14D3] | 5.1 | 2.3 | 2.4 | 2.5 | 1.3 | 4.4 | 1.6 | 19.7 | 0.5 | 72.4
3 | CCCCCCCCCCCCCCSc1nc(NCCCN2CCN(C)CC2)nc(SCCCCCCCCC)n1 [Compound S9S14D9] | 28.4 | 68.8 | 14.8 | 14.8 | 38.2 | 19.1 | 2.5 | 16.4 | 11.1 | 12.4
4 | CCCCCCCCCCCCSc1nc(NCC2CCN(C)CC2)nc(SCCCCCCCC)n1 [Compound S8S12D10] | – | – | 11.7 | 11.7 | 37.7 | 50.2 | 2.6 | 24.6 | 1.0 | 25.6
5 | CCCCCCCCCCCNc1nc(NCCCN2CCN(C)CC2)nc(SCCCCCCCCC)n1 [Compound S9N11D9] | – | – | 24.3 | 24.6 | 27.3 | 11.8 | 6.6 | 2.9 | 1.1 | 45.4
6 | CCCCCCCCCCCSc1nc(NCCCN2CCOCC2)nc(SCCCCCCCC)n1 [Compound S8S11D8] | – | – | 7.6 | 7.6 | 12.3 | 7.0 | 1.0 | 1.6 | 2.2 | 0.7
7 | CCCCCCCCCCCCNc1nc(NCCCN(C)C)nc(SCCCCCCCCC)n1 [Compound S9N12D6] | – | – | 35.5 | 35.5 | 21.8 | 22.4 | 1.9 | 6.1 | 1.7 | 5.3
